Reference: US20120128630A1, “1-(6 MEMBERS AZO-HETEROCYCLIC)-PYRROLIN-2-ONE COMPOUNDS AS INHIBITORS OF HEPATITIS C NS5B POLYMERASE, THE PHARAMACEUTICAL COMPOSITION THEREOF AND THEIR THERAPEUTIC USE” (priority 2009, published 2012)

Tests used:
[1] = target: T1, HCV NS5B genotype 1b (Hepatitis C virus genotype 1b, UniProt Q9WMX2); assay: 3D-SCREEN assay (NS5B 3D-Screen platform, luciferase reporter gene); format: cell-based; conditions: EC50_3DS_NS5B
T1 construct: The protein was expressed with a 21 amino acid C-terminal deletion to remove transmembrane domain; expressed in transfected cells; host or cells: Huh-7
Description: cDNA encoding HCV NS5B genotype 1b, was cloned in frame with Gal4-DNA Binding Domain. The protein was expressed with a 21 amino acid C-terminal deletion to remove transmembrane domain. Expression of NS5BΔ21/Gal4 DBD fusion protein was under control of SV40 early promoter. 3D-Sensor peptide was cloned in frame with VP16 activation domain. Expression of 3D-Sensor/VP16 AD fusion protein was under control of CMV promoter. Expression of the firefly luciferase reporter gene was inducible by the [Target protein/conformation sensitive peptide/VP16AD] complex.
It is a single-target, cell based assay. Briefly, expression of a reporter gene depends on the interaction of a short peptide, thereafter named 3D-Sensor, and native conformation of the target protein. Whenever the conformation of the target protein is modified, interaction between 3D-sensor and target protein is disrupted and reporter gene is not expressed anymore. Conformation modifiers are identified by loss of expression of reporter gene. NS5B 3D-Screen platform was generated in Huh-7 cell lines by transient transfection of three expression vectors encoding respectively
(i) HCV NS5BΔ21/Gal4-DBD fusion protein
(ii) the 3D-sensor peptide I4/VP16 fusion protein
(iii) the firefly luciferase reporter gene
Huh-7 cells were dissociated the day before transfection and seeded in T175 flasks at a density of 10^7 cells in 30 ml culture medium. Equimolar ratios of vectors were transfected in cell according to optimized jetPEI transfection protocol (PolyPlus Transfection, Illkirch, France) and 10 μg total DNA/10^6 cells. Transfection was performed for 2 hours at 37° C. and 5% CO2 in a humidified atmosphere. After two hours cells were dissociated and seeded in 96 wells plates at a density of 25,000 cells per well and 90 μl culture medium. 10 μl of compounds to be tested were added 2 hours after seeding. Final concentration of DMSO was 1%. Cells were incubated in the presence of compounds for 24 hours after which expression of firefly luciferase reporter gene was quantified. Briefly, culture medium was removed and cells were lysed by addition of 100 μl of lysis buffer containing 125 mM Tris Phosphate ph 7.8, 10 mM EDTA, 5 mM DTT, 50% glycerol and 5% Triton. Plates were vortexed 10 min at 1300 rpm. Cell lysat was transferred in OpaqueWhite Assay 96 well Flat Bottom plates. 100 μl of luciferin solution 1× were added to each well. Luciferin solution contained 40 mM Tris Phosphate ph 7.8, 0.2 mM EDTA, 67 mM DTT, 2.14 mM MgCl2, 5.4 mM MgSO4, 4.7×10^−4 M luciferin, 5.3×10^−4 M ATP and 2.7×10^−4 M Acetyl co enzyme A. Luminescence was immediately measured with Berthold Microlumat Plus LB 96V luminometer with an integration of 0.5 sec. Inhibition was calculated using the formula: % inhibition=(1−(read/average max))*100. Average max=signal in absence of compound

[2] = Table 1, 3D-SCREEN assay results, Huh-7 cells, 24 hours with compound, firefly luciferase reporter

Compound | melting point [°C] | EC50 [1, 2] [µM] | EC50 ([1]; Table 2, titled Replicon assay results) [µM]
COC(=O)c1ccc(N2C(=O)C(O)=C(C(=O)c3ccc(C)cc3)C2c2ccc(C(C)(C)C)cc2)nc1 (centres unmarked) | 287 to 288 | – | –
COc1ccc(C(=O)C2=C(O)C(=O)N(c3ccc(C)nn3)C2c2ccc(OC(F)(F)F)cc2)cn1 (centres unmarked) | 250 to 251 | – | –
CCOc1ccc(C2C(C(=O)c3ccc(C(C)C)cc3)=C(O)C(=O)N2c2ccc(C)nn2)nc1 (centres unmarked) | 198 to 199 | – | –
CC(=O)c1ccc(C2C(C(=O)c3ccc(C(C)C)cc3)=C(O)C(=O)N2c2ccc(C)nn2)cc1 (centres unmarked) | 259 to 266 | – | –
Cc1ccc(N2C(=O)C(O)=C(C(=O)c3ccc(C(C)C)cc3)C2c2ccc(F)cc2)nn1 (centres unmarked) | 273 to 278 | – | –
Cc1ccc(N2C(=O)C(O)=C(C(=O)c3ccc(C(C)C)cc3)C2c2ccc(O)cc2)nn1 (centres unmarked) | 222 to 224 | – | –
Cc1ccc(N2C(=O)C(O)=C(C(=O)c3ccc(C(C)C)cc3)C2c2ccc(Cn3cnnn3)cc2)nn1 (centres unmarked) | > 300 | – | –
Cc1ccc(N2C(=O)C(O)=C(C(=O)c3ccc(C(C)C)cc3)C2c2ccc(Cn3cncn3)cc2)nn1 (centres unmarked) | 223 | – | –
Cc1ccc(N2C(=O)C(O)=C(C(=O)c3ccc(C(C)C)cc3)C2c2ccc(-n3cncn3)cc2)nn1 (centres unmarked) | 284 | – | –
Cc1ccc(N2C(=O)C(O)=C(C(=O)c3ccc(C(C)C)cc3)C2c2ccc(Cn3cccn3)cc2)nn1 (centres unmarked) | 263 | – | –
Cc1ccc(N2C(=O)C(O)=C(C(=O)c3ccc(C(C)C)cc3)C2c2ccc(Cn3ccnn3)cc2)nn1 (centres unmarked) | 293 | – | –
Cc1ccc(N2C(=O)C(O)=C(C(=O)c3ccc(C(C)C)cc3)C2c2ccc(Cn3ncnn3)cc2)nn1 (centres unmarked) | 271 | – | –
Cc1ccc(N2C(=O)C(O)=C(C(=O)c3ccc(OC(F)(F)F)cc3)C2c2ccc(Cn3ncnn3)cc2)nn1 (centres unmarked) | 258 | – | –
Cc1ccc(N2C(=O)C(O)=C(C(=O)c3ccc(OC(F)(F)F)cc3)C2c2ccc(Cn3ccnn3)cc2)nn1 (centres unmarked) | 275 | – | –
Cc1ccc(N2C(=O)C(O)=C(C(=O)c3ccc(OC(F)(F)F)cc3)C2c2ccc(Cn3nccn3)cc2)nn1 (centres unmarked) | 277 | – | –
Cc1ccc(N2C(=O)C(O)=C(C(=O)c3ccc(OC(F)(F)F)cc3)C2c2ccc(Cn3cnnn3)cc2)nn1 (centres unmarked) | > 300 | – | –
Cc1ccc(N2C(=O)C(O)=C(C(=O)c3ccc(OC(F)(F)F)cc3)C2c2ccc(Cn3cncn3)cc2)nn1 (centres unmarked) | 224 | – | –
Cc1ccc(N2C(=O)C(O)=C(C(=O)c3cccc(Cl)c3)C2c2ccc(C(C)C)cc2)nn1 (centres unmarked) | 271 | – | –
Cc1ccc(N2C(=O)C(O)=C(C(=O)c3ccc(C(C)C)cc3)C2c2ccc(Oc3ccccn3)cc2)nn1 (centres unmarked) | 280 | – | –
Cc1ccc(N2C(=O)C(O)=C(C(=O)c3ccc(C(C)C)cc3)C2c2ccc(-c3nnc(C)o3)cc2)nn1 (centres unmarked) | 293 | – | –
Cc1ccc(N2C(=O)C(O)=C(C(=O)c3ccccc3C)C2c2ccc(C(C)C)cc2)nn1 (centres unmarked) | 221 | – | –
COc1cccc(C2C(C(=O)c3ccc(C)cc3)=C(O)C(=O)N2c2ccc(C)nn2)c1 (centres unmarked) | 265 | – | –
COc1ccc(C2C(C(=O)c3ccc(C)cc3)=C(O)C(=O)N2c2ccc(C)nn2)cc1 (centres unmarked) | 266 | – | –
COc1ccc(C(=O)C2=C(O)C(=O)N(c3ccc(C)nn3)C2c2ccc(OC)cc2)cc1 (centres unmarked) | 259 | – | –

Compound | melting point [°C] | EC50 [1, 2] [µM] | EC50 ([1]; Table 2, titled Replicon assay results) [µM]
Cc1ccc(C(=O)C2=C(O)C(=O)N(c3ccc(C)nn3)C2c2cccc(C(F)(F)F)c2)cc1 (centres unmarked) | 232 | – | –
COC(=O)c1ccc(N2C(=O)C(O)=C(C(=O)c3ccc(C)cc3)C2c2ccc(C(C)C)cc2)nc1 (centres unmarked) | 264 to 266 | – | –
COc1ccccc1C1C(C(=O)c2ccc(C)cc2)=C(O)C(=O)N1c1ccc(C)nn1 (centres unmarked) | 211 to 213 | – | –
Cc1cccc(C(=O)C2=C(O)C(=O)N(c3ccc(C)nn3)C2c2ccc(C(C)C)cc2)c1 (centres unmarked) | 245 to 250 | – | –
Cc1ccc(C(=O)C2=C(O)C(=O)N(c3ccc(C(C)C)nn3)C2c2ccc(C(C)C)cc2)cc1 (centres unmarked) | 269 to 270 | – | –
Cc1ccc(N2C(=O)C(O)=C(C(=O)c3ccc(C(C)C)cc3)C2c2ccc(N3CCN(C)CC3)cc2)nn1 (centres unmarked) | 198 to 203 | – | –
Cc1ccc(N2C(=O)C(O)=C(C(=O)c3ccc(C(C)C)cc3)C2c2ccc(OCCN3CCOCC3)cc2)nn1 (centres unmarked) | 256 | – | –
Cc1ccc(C(=O)C2=C(O)C(=O)N(c3ccc(C)nn3)C2c2ccc(OC3CCN(C)CC3)cc2)cc1 (centres unmarked) | 259 to 260 | – | –
COc1ccc(C2C(C(=O)c3ccc(N4CCOCC4)cc3)=C(O)C(=O)N2c2ccc(C)nn2)cc1 (centres unmarked) | 232 | – | –
Cc1ccc(N2C(=O)C(O)=C(C(=NOCC(=O)O)c3ccc(C(C)C)cc3)C2c2ccc(C(C)C)cc2)nn1 (centres unmarked) | 234 | – | –
Cc1ccc(C(=O)C2=C(O)C(=O)N(c3ccc(C)nn3)C2c2ccc(C)cc2C)cc1 (centres unmarked) | 254 | – | –
Cc1ccc(C(=O)C2=C(O)C(=O)N(c3ccc(C)nn3)C2c2ccc(OCCN(C)C)cc2)cc1 (centres unmarked) | 263 to 266 | – | –
Cc1ccc(C(=O)C2=C(O)C(=O)N(c3ccc(C(F)(F)F)cn3)C2c2ccc(C(C)C)cc2)cc1 (centres unmarked) | 255 to 257 | – | –
Cc1ccc(C(=O)C2=C(O)C(=O)N(c3ccc(C)nn3)C2c2ccc(N3CCN(CCN(C)C)CC3)cc2)cc1 (centres unmarked) | 185.3 | – | –
COc1ccc(COc2ccc(C(=O)C3=C(O)C(=O)N(c4ccc(C)nn4)C3c3ccc(OC(F)(F)F)cc3)cc2)cc1 (centres unmarked) | 206 to 209 | – | –
COC1=C(C(=O)c2ccc(C)cc2)C(c2ccc(OC(F)(F)F)cc2)N(c2ccc(C)nn2)C1=O (centres unmarked) | 206 to 207 | – | –
COC1=C(C(=O)c2ccc(C)cc2)C(c2ccc(C(C)C)cc2)N(c2ccc(C)nn2)C1=O (centres unmarked) | 248 to 249 | – | –
Cc1ccc(N2C(=O)C(O)=C(C(=O)c3ccc(-c4ccccn4)cc3)C2c2ccc(OC(F)(F)F)cc2)nn1 (centres unmarked) | 247 to 249 | – | –
Cc1ccc(N2C(=O)C(O)=C(C(=NOCC(=O)O)c3ccc(C(C)C)cc3)C2c2ccc(OC(F)(F)F)cc2)nn1 (mixture of isomers) [Example 83, [[4-Hydroxy-1-(6-methyl-pyridazin-3-yl)-5-oxo-2-(4-trifluoromethoxy-phenyl)-2,5-dihydro-1H-pyrrol-3-yl]-(4-isopropyl-phenyl)-methyleneaminooxy]-acetic acid] | 227 | 8 | –
COCCON=C(C1=C(O)C(=O)N(c2ccc(C)nn2)C1c1ccc(OC(F)(F)F)cc1)c1ccc(C(C)C)cc1 (mixture of isomers) [Example 84, 3-Hydroxy-4-{(4-isopropyl-phenyl)-[2-methoxy-ethoxyimino]-methyl}-1-(6-methyl-pyridazin-3-yl)-5-(4-trifluoromethoxy-phenyl)-1,5-dihydro-pyrrol-2-one] | 115 to 118 | 3 | –
Cc1ccc(C(=O)C2=C(O)C(=O)N(c3ccc(C)nn3)C2c2ccc(C(F)(F)F)cc2)cc1 (centres unmarked) [Example 18, 3-hydroxy-4-(4-methyl-benzoyl)-1-(6-methyl-pyridazin-3-yl)-5-(4-trifluoromethyl-phenyl)-1,5-dihydro-pyrrol-2-one] | 278 | 1 | –
COc1ccc(C(=O)C2=C(O)C(=O)N(c3ccc(C)nn3)C2c2ccc(OC(F)(F)F)cc2)cc1 (centres unmarked) [Example 23, 3-hydroxy-4-(4-methoxy-benzoyl)-1-(6-methyl-pyridazin-3-yl)-5-(4-trifluoromethoxy-phenyl)-1,5-dihydro-pyrrol-2-one] | 265 | 1 | –
COc1ccc(C2C(C(=O)c3ccc(OC(F)(F)F)cc3)=C(O)C(=O)N2c2ccc(C)nn2)cc1 (centres unmarked) [Example 24, 3-hydroxy-5-(4-methoxy-phenyl)-1-(6-methyl-pyridazin-3-yl)-4-(4-trifluoromethoxy-benzoyl)-1,5-dihydro-pyrrol-2-one] | 279 | 3 | –
Cc1ccc(N2C(=O)C(O)=C(C(=O)c3ccc(C(C)C)cc3)[C@@H]2c2ccc(C(C)(F)F)cc2)nn1 [Example 197, 5(S)-[4-(1,1-difluoro-ethyl)-phenyl]-3-hydroxy-4-(4-isopropyl-benzoyl)-1-(6-methyl-pyridazin-3-yl)-1,5-dihydro-pyrrol-2-one] | – | – | < 10
